Results from article PMC4608732, “Phosphorylation and Internalization of Lysophosphatidic Acid Receptors LPA1, LPA2, and LPA3” (PLoS ONE, 2015).

Assays:
[1] = tested on: ERK 1/2; test: ERK 1/2 phosphorylation (Western blotting) in C9 cells overexpressing LPA1-3; assay type: cell-based, rat
Protocol: Cells were cultured to near confluence in 6 well plates and stimulated with the agents tested for the times indicated. Total cellular extracts were obtained by lysing the cells in Laemmli’s sample buffer containing 5% β-mercaptoethanol. The cell extracts were subject to 10% SDS-PAGE and transferred to nitrocellulose membranes. Membranes from samples obtained in parallel were incubated overnight at 4°C, with anti-pERK 1/2 (1:2000) or anti ERK 1/2 (1:2000). The membranes were washed and incubated for 1 h at room temperature with a horseradish peroxidase-conjugated secondary antibody (1:10,000) for enhanced chemiluminescence detection.

[2] = target: T1, LPA1 receptor (Mus musculus, UniProt P61793); test: Heterologous (PMA) / homologous (LPA) desensitization of LPA-induced calcium response, LPA1 cells; assay type: cell-based; conditions: 15 min preincubation with inhibitor, LPA1 cells
T1 construct: expressed in transfected cells
T1 sequence (P61793 whole entry): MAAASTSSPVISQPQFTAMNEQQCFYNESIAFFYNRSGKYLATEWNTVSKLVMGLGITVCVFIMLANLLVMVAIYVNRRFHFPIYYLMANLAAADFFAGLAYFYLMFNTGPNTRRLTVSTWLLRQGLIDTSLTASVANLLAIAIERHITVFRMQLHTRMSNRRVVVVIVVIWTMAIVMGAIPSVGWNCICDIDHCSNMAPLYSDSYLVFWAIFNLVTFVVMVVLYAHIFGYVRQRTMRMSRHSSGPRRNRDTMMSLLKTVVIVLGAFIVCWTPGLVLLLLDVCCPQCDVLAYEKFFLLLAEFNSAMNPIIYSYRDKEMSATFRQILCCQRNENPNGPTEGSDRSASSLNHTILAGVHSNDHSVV
Protocol: (§1) This procedure has been described previously. Briefly, cells were loaded with 2.5 μM Fura-2 AM in Krebs–Ringer–Hepes containing 0.05% bovine serum albumin (pH 7.4) for 1 h at 37°C and then washed to eliminate unincorporated indicator. Determinations were carried in an AMINCO-Bowman Series 2 luminescence spectrometer, employing 340 and 380 nm excitation wavelengths and an emission wavelength of 510 nm; chopper interval was 0.5 sec. The intracellular calcium concentration was calculated as described by Grynkiewicz et al.. In the experiments where prolonged incubation was required (resensitization studies), cells were stimulated, washed, and the incubation was continued in the presence of Fura-2 AM, to avoid dye depletion.
(§2) Agonists-mediated decreases occurred in a concentration-dependent fashion, with a maximum at the concentration of ~ 100 nM. […] It is worth noticing that the shift in the curves was more pronounced in LPA1- or LPA3-expressing cells, than in those that expressed the LPA2 subtype.
(§3) Plotted are the increases in calcium as the percentage of that obtained in cells preincubated without any agent as mean ± S. E. M. of 6 experiments using different cell preparations.

[3] = target: T2, LPA2 receptor (Homo sapiens, UniProt Q9HBW0); test: Heterologous (PMA) / homologous (LPA) desensitization of LPA-induced calcium response, LPA2 cells; assay type: cell-based; conditions: 15 min preincubation with inhibitor, LPA2 cells
T2 sequence (Q9HBW0 whole entry): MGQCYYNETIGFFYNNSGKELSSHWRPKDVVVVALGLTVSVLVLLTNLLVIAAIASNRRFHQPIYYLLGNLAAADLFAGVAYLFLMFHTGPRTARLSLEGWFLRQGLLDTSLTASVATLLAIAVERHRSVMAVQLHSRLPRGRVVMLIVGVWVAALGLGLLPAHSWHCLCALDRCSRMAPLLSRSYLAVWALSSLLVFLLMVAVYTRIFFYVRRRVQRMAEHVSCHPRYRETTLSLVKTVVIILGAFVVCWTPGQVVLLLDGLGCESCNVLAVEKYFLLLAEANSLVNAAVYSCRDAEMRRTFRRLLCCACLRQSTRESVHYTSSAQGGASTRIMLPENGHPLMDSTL
Protocol: as §1, §2, §3

[4] = target: T3, LPA3 receptor (Homo sapiens, UniProt Q9UBY5); test: Heterologous (PMA) / homologous (LPA) desensitization of LPA-induced calcium response, LPA3 cells; assay type: cell-based; conditions: 15 min preincubation with inhibitor, LPA3 cells
T3 sequence (Q9UBY5 1-353): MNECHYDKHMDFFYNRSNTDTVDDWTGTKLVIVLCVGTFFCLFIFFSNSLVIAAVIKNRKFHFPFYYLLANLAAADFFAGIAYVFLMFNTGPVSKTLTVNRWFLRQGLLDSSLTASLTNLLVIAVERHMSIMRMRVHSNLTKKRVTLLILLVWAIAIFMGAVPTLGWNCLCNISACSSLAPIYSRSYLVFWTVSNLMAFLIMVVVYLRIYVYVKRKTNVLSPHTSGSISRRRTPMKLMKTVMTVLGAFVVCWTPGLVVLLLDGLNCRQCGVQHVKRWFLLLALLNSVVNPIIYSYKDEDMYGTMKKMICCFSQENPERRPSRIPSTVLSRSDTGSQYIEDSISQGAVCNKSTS
Protocol: as §1, §2, §3

[5] = target: T1, LPA1 receptor; test: LPA1 receptor phosphorylation ([32P]Pi labeling, immunoprecipitation); assay type: cell-based; conditions: 10 μM AG1478 30 min, then 1 μM LPA 15 min, LPA1 cells
Protocol: (§4) The procedure was very similar to that previously described to study LPA1 receptor phosphorylation. In brief, cells were incubated in phosphate-free Dulbecco’s modified Eagle’s medium containing 100 μCi/ml [^32P]Pi for 3 h at 37°C. LPA1- and LPA2-expressing cells were cultured in 6 well plates, whereas those expressing LPA3 receptors were cultured in 10 cm dishes. Labeled cells were stimulated with the agents tested and then washed twice with ice-cold phosphate buffered saline and solubilized in buffer containing 10 mM Tris, 150 mM NaCl, 1% sodium cholate, 1% Nonident P40, protease and phosphatase inhibitors, pH 7.4 [11, 12, 14]. The lysates were incubated overnight with protein A-agarose and anti-GFP serum with constant agitation at 4°C. Samples were washed and the pellets containing the immunocomplexes were solubilized in Laemmli’s sample buffer containing 5% β-mercaptoethanol. Proteins were separated using 10% SDS-PAGE and electrotransferred onto polyvinyliden fluoride membranes. Receptor phosphorylation was analyzed with a Molecular Dynamics Typhoon PhosphorImager and the ImageJ software (http://rsb.info.nih.gov/ij/).

[6] = target: T2, LPA2 receptor; test: LPA2 receptor phosphorylation ([32P]Pi labeling, immunoprecipitation); assay type: cell-based; conditions: 10 μM AG1478 30 min, then 1 μM LPA 15 min, LPA2 cells
Protocol: as §4

[7] = target: T3, LPA3 receptor; test: LPA3 receptor phosphorylation ([32P]Pi labeling, immunoprecipitation); assay type: cell-based; conditions: 10 μM AG1478 30 min, then 1 μM LPA 15 min, LPA3 cells

Compound: EGF: epidermal growth factor, obtained from Preprotech (NSDSECPLSHDGYCLHDGVCMYIEALDKYACNCVVGYIGERCQYRDLKWWELR; UniProt P01133 971-1023, looked up)
- increase in ERK phosphorylation ([1]; 100 ng/ml EGF, 5 min, cells overexpressing LPA1-3): ~ 4 fold

Compound: CN(C)CCCn1cc(C2=C(c3c[nH]c4ccccc34)C(=O)NC2=O)c2ccccc21 [bisindolylmaleimide I, Bisindolylmaleimide I]
- effect on LPA-induced desensitization ([2]; 1 μM LPA): unable to alter LPA-induced desensitization
- effect on PMA-induced desensitization ([2]; 1 μM PMA): markedly diminished PMA-induced desensitization
- effect on LPA-induced desensitization ([3]; 1 μM LPA): unable to alter LPA-induced desensitization
- effect on PMA-induced desensitization ([3]; 1 μM PMA): markedly diminished PMA-induced desensitization
- effect on LPA-induced desensitization ([4]; 1 μM LPA): unable to alter LPA-induced desensitization
- effect on PMA-induced desensitization ([4]; 1 μM PMA): markedly diminished PMA-induced desensitization

Compound: COc1cc2ncnc(Nc3cccc(Cl)c3)c2cc1OC [AG1478]
- effect on LPA-induced receptor phosphorylation [5]: markedly reduced (but did not abolish)
- effect on LPA-induced receptor phosphorylation [6]: markedly reduced (but did not abolish)
- effect on LPA-induced receptor phosphorylation [7]: markedly reduced (but did not abolish)
- effect on baseline phospho-ERK signal ([1]; 10 μM AG1478 30 min, cells expressing LPA1 receptors): did not alter it
- effect on baseline phospho-ERK signal ([1]; 10 μM AG1478 30 min, cells overexpressing LPA2, statistically insignificant): decrease it
- effect on baseline phospho-ERK signal ([1]; 10 μM AG1478 30 min, cells overexpressing LPA3, statistically significant): decrease it
- effect on LPA- and EGF-induced ERK phosphorylation ([1]; 10 μM AG1478 30 min, then 1 μM LPA or 100 ng/ml EGF 5 min): clearly diminished the effect of both growth factors
